Test results reported in patent US20110123988A1, “ANTISENSE COMPOUNDS AND METHODS FOR DIAGNOSTIC IMAGING” (GENESEEN LLC, priority 2003, published 2011).

System: cells expressing IGFR1 (murine BALB/c 3T3 cells; p6 cells overexpressing a transfected human IGFR1 gene; human Jurkat cells as negative control)
Assay: Cellular uptake of PNA-peptide conjugates by cells in vitro
Assay type: cell-based
Conditions: versus control PNA Gly-CCGCTTCCTTTC without peptide; measured with both the 14C-conjugate and the fluoresceinyl-conjugate; BALB/c 3T3, p6 and Jurkat cells
Excerpt: To improve cellular uptake of an IGFR1 antisense sequence targeted against IGFR1 mRNA codons 706-709 (CCGCTTCCTTTC, SEQ ID NO:42; Ullrich et al., 1986, EMBO J. 5:10:2503-2512), a PNA with this base sequence was conjugated to a D-amino acid IGF1 peptide having the sequence (Gly)4D(Cys-Ser-Lys-Cys). This peptide binds selectively to the cell surface receptor for insulin-like growth factor 1 (IGFR1), which is overexpressed on malignant cells (Pietrzkowski et al., 1992, Mol. Cell. Biol. 12:9:3883-3889). The same PNA was also conjugated to a control peptide of the sequence (Gly)4D(Cys-Ala-Ala-Cys), which is not expected to bind to cells expressing IGFR1. The IGF1 D-peptide and control peptide was assembled on (4-methyl benzhydrypamine (MBHA) resin, and then the PNA was extended as a continuation of the peptide. The IGF1 peptide and control peptide sequences were radiolabeled with ^14C or fluorescently labeled with fluorescein isothiocyanate (Basu & Wickstrom, 1997, Bioconj. Chem. 8:4:481-488).

Substance: Gly-CCGCTTCCTTTC-(Gly)4D(CysSerLysCys) (PNA, Gly, (Gly)4, D-peptide, 14C or fluorescein label, chemistry not fully specified) [labeled with 14C or fluorescein]
- cellular uptake: much higher uptake than the control Gly-CCGCTTCCTTTC, but only in cells expressing IGFR1
